Common to all, as to format: cell-based
In one test the target is T1, human TLR8 (Homo sapiens, UniProt Q9NR97).
T1 construct: host or cells: HEK-Blue cells
T1 sequence (Q9NR97 27-1041): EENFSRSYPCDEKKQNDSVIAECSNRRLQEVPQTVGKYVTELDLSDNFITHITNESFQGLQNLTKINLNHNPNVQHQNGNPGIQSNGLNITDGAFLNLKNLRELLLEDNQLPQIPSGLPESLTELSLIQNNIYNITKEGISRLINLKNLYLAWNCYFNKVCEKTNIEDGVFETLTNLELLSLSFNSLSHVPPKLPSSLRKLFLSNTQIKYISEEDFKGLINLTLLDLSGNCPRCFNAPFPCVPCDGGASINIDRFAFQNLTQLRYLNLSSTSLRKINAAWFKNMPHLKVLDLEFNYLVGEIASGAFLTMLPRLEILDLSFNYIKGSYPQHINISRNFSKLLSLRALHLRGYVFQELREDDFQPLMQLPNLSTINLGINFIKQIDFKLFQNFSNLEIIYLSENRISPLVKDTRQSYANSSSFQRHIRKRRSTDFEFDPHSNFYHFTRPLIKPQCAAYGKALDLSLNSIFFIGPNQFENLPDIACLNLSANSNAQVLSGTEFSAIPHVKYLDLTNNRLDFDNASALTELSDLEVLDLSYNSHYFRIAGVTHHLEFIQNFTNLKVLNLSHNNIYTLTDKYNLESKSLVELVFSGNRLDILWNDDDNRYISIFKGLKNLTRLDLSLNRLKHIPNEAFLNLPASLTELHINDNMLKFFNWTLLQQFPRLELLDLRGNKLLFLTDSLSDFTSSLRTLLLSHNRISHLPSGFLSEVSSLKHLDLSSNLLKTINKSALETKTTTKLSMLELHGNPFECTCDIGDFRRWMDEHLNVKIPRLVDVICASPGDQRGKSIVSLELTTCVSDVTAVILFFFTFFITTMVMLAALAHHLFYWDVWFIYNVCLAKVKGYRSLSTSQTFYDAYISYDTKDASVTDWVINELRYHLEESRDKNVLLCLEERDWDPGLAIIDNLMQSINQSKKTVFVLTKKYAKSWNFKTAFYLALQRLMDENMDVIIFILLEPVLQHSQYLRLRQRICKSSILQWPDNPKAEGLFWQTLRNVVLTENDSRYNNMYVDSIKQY
Description: TLR8 inhibition reporter assay (HEK-Blue cells, SEAP reporter, R848 stimulation). Conditions: HEK-Blue cells overexpressing human TLR8, SEAP reporter, R848 15.9 μM. The method in brief:
(§1)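 Dose range 0.05 nM–50 μM; 30 min preincubation, RT. Agonists: TLR7 gardiquimod 7.5 μM, TLR8 R848 15.9 μM, TLR9 ODN2006 5 nM. 22 h, 37 °C, 5% CO2. SEAP (IFN-β minimal promoter with NF-κB/AP-1 sites) via colorimetric detection medium; % inhibition vs agonist+DMSO and reference-inhibitor wells.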

The target of a further test is T2, human TLR9 (Homo sapiens, UniProt Q9NR96).
T2 construct: host or cells: HEK-Blue cells
T2 sequence (Q9NR96 26-1032): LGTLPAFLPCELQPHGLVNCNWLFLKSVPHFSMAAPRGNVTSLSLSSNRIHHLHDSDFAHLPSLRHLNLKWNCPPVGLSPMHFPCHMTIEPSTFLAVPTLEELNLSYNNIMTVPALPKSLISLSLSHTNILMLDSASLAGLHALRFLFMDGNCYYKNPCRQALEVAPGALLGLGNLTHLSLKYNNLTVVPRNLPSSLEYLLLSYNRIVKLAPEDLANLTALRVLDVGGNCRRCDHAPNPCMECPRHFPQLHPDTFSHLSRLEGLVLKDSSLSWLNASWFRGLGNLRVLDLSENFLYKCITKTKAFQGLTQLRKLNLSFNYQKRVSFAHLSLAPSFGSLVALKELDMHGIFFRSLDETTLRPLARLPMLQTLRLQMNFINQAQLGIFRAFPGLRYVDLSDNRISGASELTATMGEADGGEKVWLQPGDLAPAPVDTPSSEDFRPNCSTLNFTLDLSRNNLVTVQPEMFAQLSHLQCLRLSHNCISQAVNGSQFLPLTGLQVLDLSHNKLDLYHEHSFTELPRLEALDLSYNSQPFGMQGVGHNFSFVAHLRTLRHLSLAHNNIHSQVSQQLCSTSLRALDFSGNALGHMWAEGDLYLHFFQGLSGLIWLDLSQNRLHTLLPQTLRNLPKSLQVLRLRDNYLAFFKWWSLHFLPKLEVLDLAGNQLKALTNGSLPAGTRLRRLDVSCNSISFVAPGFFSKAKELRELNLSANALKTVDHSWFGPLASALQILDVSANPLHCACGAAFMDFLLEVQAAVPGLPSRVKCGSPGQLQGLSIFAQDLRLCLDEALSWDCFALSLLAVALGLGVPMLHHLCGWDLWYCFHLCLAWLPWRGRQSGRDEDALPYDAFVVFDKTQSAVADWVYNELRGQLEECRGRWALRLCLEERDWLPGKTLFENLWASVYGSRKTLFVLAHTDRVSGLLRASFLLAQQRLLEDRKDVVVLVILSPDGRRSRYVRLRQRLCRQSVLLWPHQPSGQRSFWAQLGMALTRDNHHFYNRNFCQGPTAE
Description: TLR9 inhibition reporter assay (HEK-Blue cells, SEAP reporter, ODN2006 stimulation). Conditions: HEK-Blue cells overexpressing human TLR9, SEAP reporter, ODN2006 5 nM. A digest of the protocol: as §1
For orientation: In a reporter assay the amount or activity of a reporter protein is the signal.

The next test has as its target T3, human TLR7 (Homo sapiens, UniProt Q9NYK1).
T3 construct: host or cells: HEK-Blue cells
T3 sequence (Q9NYK1 27-1049): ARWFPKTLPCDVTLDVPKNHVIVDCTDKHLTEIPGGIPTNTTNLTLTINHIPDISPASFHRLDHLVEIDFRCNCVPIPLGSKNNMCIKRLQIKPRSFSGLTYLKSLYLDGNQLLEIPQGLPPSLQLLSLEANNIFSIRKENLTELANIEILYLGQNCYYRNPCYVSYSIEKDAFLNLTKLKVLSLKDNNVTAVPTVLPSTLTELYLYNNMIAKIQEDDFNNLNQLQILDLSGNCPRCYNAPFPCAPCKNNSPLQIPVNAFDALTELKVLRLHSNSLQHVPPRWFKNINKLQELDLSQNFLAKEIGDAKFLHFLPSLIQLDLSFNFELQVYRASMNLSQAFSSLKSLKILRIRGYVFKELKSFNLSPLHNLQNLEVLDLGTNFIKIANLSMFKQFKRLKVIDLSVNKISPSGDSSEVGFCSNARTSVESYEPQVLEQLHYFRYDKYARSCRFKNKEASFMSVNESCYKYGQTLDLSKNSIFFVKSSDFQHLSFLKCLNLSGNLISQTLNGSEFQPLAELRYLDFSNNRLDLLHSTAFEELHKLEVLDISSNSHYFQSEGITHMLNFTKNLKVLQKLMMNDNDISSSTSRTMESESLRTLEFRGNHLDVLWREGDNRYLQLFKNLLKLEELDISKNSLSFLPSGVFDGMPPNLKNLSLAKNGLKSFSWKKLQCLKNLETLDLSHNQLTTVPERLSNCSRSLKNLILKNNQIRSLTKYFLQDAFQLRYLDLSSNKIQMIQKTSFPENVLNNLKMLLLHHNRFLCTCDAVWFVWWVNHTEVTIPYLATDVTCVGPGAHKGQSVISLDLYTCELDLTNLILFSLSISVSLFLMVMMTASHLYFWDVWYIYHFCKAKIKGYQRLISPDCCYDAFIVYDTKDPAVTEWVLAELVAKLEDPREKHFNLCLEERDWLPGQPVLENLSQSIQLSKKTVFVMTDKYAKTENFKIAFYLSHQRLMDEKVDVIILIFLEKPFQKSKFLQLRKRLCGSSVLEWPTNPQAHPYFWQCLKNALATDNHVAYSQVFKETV
Description: TLR7 inhibition reporter assay (HEK-Blue cells, SEAP reporter, gardiquimod stimulation). As to conditions: HEK-Blue cells overexpressing human TLR7, SEAP reporter, gardiquimod 7.5 μM. A digest of the protocol:
as §1

As for `CNC(=O)CN1CCOC(c2ccc3[nH]c(-c4cn5ncnc5c(C)c4C)c(C(C)C)c3c2)C1` (stereo not drawn) [Example 311], the IC50 (in general, the concentration that gives 50% inhibition) was 38 nM at human TLR8, greater than 50000 nM against human TLR9 and 17 nM at human TLR7.
With `Cc1c(-c2[nH]c3ccc(C4CN(C5COC5)C4)cc3c2C(C)C)cn2ncnc2c1C` [Example 544], the IC50 is 12 nM on human TLR8, 21000 nM at human TLR9 and 5 nM at human TLR7.
The corresponding values for `COc1cc(-c2[nH]c3ccc(C4CC(N(C)C(=O)CN(C)C)C4)cc3c2C(C)C)cn2ncnc12` (stereo not drawn) [Example 588] are 1.4 nM, 1870 nM and 0.4 nM.
In the case of `COc1cc(-c2[nH]c3ccc(C4CCC(NCC(=O)NC5COC5)CC4)cc3c2C(C)C)cn2ncnc12` (stereo not drawn) [Example 164], the IC50 worked out at 7.1 nM at human TLR8, 1920 nM on human TLR9 and 1 nM against human TLR7.
With `Cc1cc(-c2[nH]c3ccc(C4CN(CC5(C)COC5)CCO4)cc3c2C(C)C)cn2ncnc12` (stereo not drawn) [Example 292], the IC50 on human TLR8 is 2.8 nM; at human TLR9, 34200 nM; on human TLR7, 22 nM.
Turning to `CCc1c(-c2ccc(OC)c(OC)c2)[nH]c2ccc(CC3CCCN3)cc12` (stereo not drawn) [Example 419], the IC50 at human TLR8 came out at 27 nM; against human TLR9, 3760 nM; at human TLR7 it was 418 nM.
As for `Cc1c(-c2[nH]c3ccc(C4CC(N(C)CCS(C)(=O)=O)C4)cc3c2C(C)C)cn2ncnc2c1C` (stereo not drawn) [Example 586], the IC50 is 3.8 nM against human TLR8, 44000 nM against human TLR9 and 13 nM against human TLR7.
Take `COc1cc(-c2[nH]c3ccc(C4CN(C(C)C)CCO4)cc3c2C(C)C)cn2ncnc12` (stereo not drawn) [Example 300]: the IC50 was determined as 6.4 nM on human TLR8, 2500 nM on human TLR9 and 2 nM against human TLR7.
As to `Cc1c(-c2[nH]c3ccc(CC4CN(C(=O)CN(C)C)C4)cc3c2C(C)C)cn(C)c(=O)c1C` [Example 415], the IC50 against human TLR8 was determined as 38 nM; on human TLR9, 5020 nM; at human TLR7, 40 nM.
As to `COc1cc(-c2[nH]c3ccc(C4CCC(N5CC[C@@H](N(C)C)C5)CC4)cc3c2C(C)C)cn2ncnc12` (stereo partly drawn) [Example 28], the results for the IC50 at human TLR8, at human TLR9 and against human TLR7 were 0.26 nM, 328 nM and 0.17 nM, respectively.
For the molecule `Cc1cc(-c2[nH]c3ccc(C4CCCN(Cc5c[nH]c(C)n5)C4)cc3c2C(C)C)cc(C)n1` (stereo not drawn) [Example 246], the IC50 against human TLR8 amounted to 16 nM; against human TLR9, 56 nM; on human TLR7, 10 nM.
Take `Cc1cc(-c2[nH]c3ccc(C4CCC(O)CC4)cc3c2C(C)C)cc(C)n1` (single isomer, unassigned) [Example 171, 4-(2-(2,6-dimethylpyridin-4-yl)-3-isopropyl-1H-indol-5-yl)cyclohexanol]: the IC50 is 212 nM against human TLR8, greater than 50000 nM against human TLR9 and 27 nM at human TLR7.
Take `Cc1c(-c2[nH]c3ccc(C4CNCCO4)cc3c2C(C)C)cn2ncnc2c1C` (stereo not drawn) [Example 287]: the results for the IC50 on human TLR8, at human TLR9 and against human TLR7 were 0.62 nM, 2550 nM and 0.7 nM, respectively.
In the case of `Cc1cc(-c2[nH]c3ccc(C4CCC(NC(=O)CN(C)C)CC4)cc3c2C(C)C)cn2ncnc12` (stereo not drawn) [Example 121], the IC50 worked out at 2.6 nM against human TLR8, 7150 nM on human TLR9 and 0.41 nM at human TLR7.
The corresponding values for `COc1cc(-c2[nH]c3ccc(C4CCC(N5C[C@@H](C)O[C@@H](C)C5)CC4)cc3c2C(C)C)cn2ncnc12` (stereo partly drawn) [Example 40] are 1.2 nM, 2510 nM and 0.75 nM.
For `Cc1cc(-c2[nH]c3ccc(C4CN(C5COC5)CCO4)cc3c2C(C)C)cn2ncnc12` (stereo not drawn) [Example 290], in that order: 177 nM, greater than 50000 nM and 36 nM.
On to `Cc1c(-c2[nH]c3ccc(C4CC5CN(C6COC6)CC5C4)cc3c2C(C)C)cn2cnnc2c1C` (stereo not drawn) [Example 522], for which the figures for the IC50 at human TLR8, at human TLR9 and against human TLR7 were 85 nM, 12700 nM and 9 nM, respectively.
In the case of `Cc1c(-c2[nH]c3ccc(C4CN(CCS(C)(=O)=O)C4)cc3c2C(C)C)cn2ncnc2c1C` [Example 543], the IC50 turned out to be 5.1 nM at human TLR8, 9490 nM at human TLR9 and 4 nM at human TLR7.
As to `COc1cc(-c2[nH]c3ccc(C4CCC(N5CCOCC5)CC4)cc3c2C(C)C)cn2ncnc12` (stereo not drawn) [Example 76], the values for the IC50 against human TLR8, at human TLR9 and at human TLR7 were 5.7 nM, 2250 nM and 1 nM, respectively.
With `COc1cc(-c2[nH]c3ccc(C4CCC(NCC(F)F)CC4)cc3c2C(C)C)cn2ncnc12` (single isomer, unassigned) [Example 68], the IC50 on human TLR8 was found to be 6.8 nM; at human TLR9, 11600 nM; on human TLR7 it was 0.85 nM.
Turning to `Cc1c(-c2[nH]c3ccc(C4CC(NCCS(C)(=O)=O)C4)cc3c2C(C)C)cn2ncnc2c1C` (stereo not drawn) [Example 572], the IC50 at human TLR8 is 0.31 nM; at human TLR9, 4960 nM; against human TLR7, 0.93 nM.
